We go through 2 compounds from article PMC12563821 (International Journal of Molecular Sciences, 2025).

For one series, the system named is HL-60 cell line. Further details: method as in PMID 35441145. The note with it: cited from earlier work.
For the next series, the system named is T1, Sirt5.
T1 construct: consisting of amino acids 37–310 (C-terminal); His-tag (N); purchased Reaction Biology Corporation (Malvern, PA, USA), in-house enzyme of the contract laboratory; host or cells: E. coli
Briefly: Fluorescence-based Sirt5 subtype selectivity assay (Reaction Biology). The note with it: 50 µM inhibitor, duplicate, relative to no-inhibitor control. The series is classed as biochemical. How it is done: (§1) The determination of the inhibitory potency and corresponding subtype selectivity of the synthesized hybrid candidates was performed by Reaction Biology Cooperation (Malvern, PA, USA) using a fluorescence-based assay (Table 1).
(§2) Sirtuin assays. The biological activity of the test substances against the respective sirtuin enzymes was evaluated by means of a fluorescence-based assay performed by Reaction Biology Corporation (Malvern, PA, USA). The sirtuin enzymes used in the assays were all obtained from in-house sources at Reaction Biology Corporation (Malvern, PA, USA). Sirt1, with accession number NM_012238, includes amino acids 1–747 (C-terminal) and is tagged with an N-terminal His-tag. Sirt1 was expressed in E. coli and purified to greater than 85% as confirmed by SDS-PAGE and is supplied as a solution in 50 mM Tris/HCl (pH 7.5), 100 mM NaCl, and 10% glycerol (v/v). Sirt2 (accession number NM_012237), comprising amino acids 50–389 (C-terminal), features an N-terminal His-tag and was expressed in E. coli and finally purified to over 90% by SDS-PAGE. Sirt2 is provided in a buffer containing 50 mM Tris/HCl (pH 7.5), 500 mM NaCl, 1 mM TCEP, and 10% glycerol (v/v). Sirt3, with accession number NM_012239.3, spans amino acids 101–399 and is tagged with an N-terminal GST and expressed in E. coli and purified to greater than 85% purity by SDS-PAGE. Sirt3 is supplied in 50 mM Tris/HCl (pH 7.5), 500 mM NaCl, and 10% glycerol (v/v). Sirt5 (accession number NM_012241), consisting of amino acids 37–310 (C-terminal) and tagged with an N-terminal His-tag, was expressed in E. coli, purified to greater than 95% purity by SDS-PAGE and delivered as a solution in 50 mM Tris/HCl (pH 7.5), 500 mM NaCl, 1 mM TCEP, and 10% glycerol (v/v). All proteins were provided in purified forms for use in the assays. The respective internal assay protocol is outlined in the following: After the test substances (dissolved in DMSO) were incubated with the desired sirtuin enzyme in assay buffer (Tris-HCl, pH = 8) for 10 min at 30 °C, a substrate mixture consisting of a 7-amino-4-methylcoumarin-linked fluorogenic peptide substrate (p53 residues 379–382) and the cofactor NAD^+ was added. After 2 h of incubation at 30 °C, the universal inhibitor nicotinamide was added in excess to completely stop the deacetylation reaction, followed by the addition of a protease-based developer to release 7-amino-4-methylcoumarin, resulting in characteristic fluorescence, which was measured after 1 h at 30 °C (excitation/emission = 360/460). A no-inhibitor control was implemented, serving as a reference for 100% enzyme activity. […] Three individual IC50 values per test compound were calculated from the corresponding three dilution series fluorescence data using sigmoidal curve fitting in Prism 8.0.2 (GraphPad Software, Boston, MA, USA), and these were averaged to determine the mean IC50 value along with the standard deviation. To assess the selectivity against Sirt1, Sirt3, and Sirt5, a 50 µM concentration of the test compound was tested in duplicate, and the inhibitory activity was expressed as the mean of the duplicates in percentage of enzyme activity, including standard deviation, relative to the no-inhibitor control (representative 100% enzyme activity).

The next series addresses T2, Sirt2 (Homo sapiens, UniProt Q8IXJ6).
T2 construct: comprising amino acids 50–389 (C-terminal); His-tag (N); purchased Reaction Biology Corporation (Malvern, PA, USA), in-house enzyme of the contract laboratory; host or cells: E. coli
T2 sequence (Q8IXJ6 50-389): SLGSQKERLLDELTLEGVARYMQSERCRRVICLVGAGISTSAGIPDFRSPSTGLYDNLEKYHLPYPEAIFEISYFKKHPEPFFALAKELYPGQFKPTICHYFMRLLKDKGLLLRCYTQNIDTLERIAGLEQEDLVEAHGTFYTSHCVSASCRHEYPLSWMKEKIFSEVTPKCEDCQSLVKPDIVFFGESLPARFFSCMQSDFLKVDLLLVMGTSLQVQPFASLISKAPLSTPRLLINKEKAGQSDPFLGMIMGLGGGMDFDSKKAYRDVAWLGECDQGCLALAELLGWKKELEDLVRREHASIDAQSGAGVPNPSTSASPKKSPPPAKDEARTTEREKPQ
Briefly: Fluorescence-based Sirt2 deacetylase inhibition assay (Reaction Biology). The series is classed as biochemical. The note with it: mean ± SD of three dilution series, fluorescence-based assay; read-out: IC50 [µM] ± SD Sirt2. How it is done:
as §1
Sirtuin assays. The biological activity of the test substances against the respective sirtuin enzymes was evaluated by means of a fluorescence-based assay performed by Reaction Biology Corporation (Malvern, PA, USA). The sirtuin enzymes used in the assays were all obtained from in-house sources at Reaction Biology Corporation (Malvern, PA, USA). […] Sirt2 is provided in a buffer containing 50 mM Tris/HCl (pH 7.5), 500 mM NaCl, 1 mM TCEP, and 10% glycerol (v/v). […] Sirt3 is supplied in 50 mM Tris/HCl (pH 7.5), 500 mM NaCl, and 10% glycerol (v/v). […] All proteins were provided in purified forms for use in the assays. […] After 2 h of incubation at 30 °C, the universal inhibitor nicotinamide was added in excess to completely stop the deacetylation reaction, followed by the addition of a protease-based developer to release 7-amino-4-methylcoumarin, resulting in characteristic fluorescence, which was measured after 1 h at 30 °C (excitation/emission = 360/460). A no-inhibitor control was implemented, serving as a reference for 100% enzyme activity. […] Three individual IC50 values per test compound were calculated from the corresponding three dilution series fluorescence data using sigmoidal curve fitting in Prism 8.0.2 (GraphPad Software, Boston, MA, USA), and these were averaged to determine the mean IC50 value along with the standard deviation. To assess the selectivity against Sirt1, Sirt3, and Sirt5, a 50 µM concentration of the test compound was tested in duplicate, and the inhibitory activity was expressed as the mean of the duplicates in percentage of enzyme activity, including standard deviation, relative to the no-inhibitor control (representative 100% enzyme activity).

Series [1] is described as follows: MTT-based cell viability assay. On the set-up: species or system human. The note with it: human; HL-60 cells, 24 h incubation, MTT; read-out: IC50 acute cytotoxicity. How it is done: The SirReal-based Sirt2 inhibitors (FM345, FM352, FM358, FM368, RW-93, RW-95 and RW-99) were tested for potential acute cytotoxicity to human cells in an MTT-based cell viability assay. […] HL-60 cells were treated with the corresponding Sirt2 inhibitors at various concentrations and then incubated for 24 h. […] Representative cell viability results following treatment with RW-93 are shown in Figure S1 of the Supplementary Materials.
Cell viability assay. The cytotoxicity of the Sirt2 inhibitors was determined using a colorimetric MTT assay following Mosmann’s protocol. HL-60 cells (purchased from DSMZ (German Collection of Microorganisms and Cell Cultures, Deutsche Sammlung von Mikroorganismen und Zellkulturen GmbH, Braunschweig, Germany) were cultivated in RPMI medium with 10% fetal bovine serum at 37 °C with 5% CO2 atmosphere. The cells were then seeded in a 96-well plate with a concentration of 9 x 10^4 cells/well and a well volume of 99 µL. The cells were further incubated at 37 °C with 5% CO2 atmosphere for 24 h. The cells were then treated with 1 µL solution of Sirt2 inhibitors in various concentrations, which were prepared from 10 mM or 20 mM DMSO stock solutions. Negative controls were treated with 1 µL DMSO and positive controls with 1 µL of 1% Triton-X solution. Three technical replicates were performed. After incubation for 24 h, 10 µL MTT (5.0 mg/mL in PBS) were added to each well and the cells were incubated at 37 °C with 5% CO2 atmosphere for 2 h. Then 190 µL DMSO were added to each well and the plate shaken at room temperature at 600 rpm for 1 h with light exclusion. The absorbance of the MTT metabolite formazan was measured at 570 nm using the MRX Microplate Reader (Dynex Technologies, Chantilly, VA, USA). The means of the corresponding triplicates were calculated and set in relation to the 1% DMSO negative controls. The data was processed using Prism 8.0.2 (GraphPad Software, Boston, MA, USA) software and a logarithmic sigmoidal curve fitting for the calculation of the respective IC50 values was performed.

A further series relates to T3, Sirt3.
T3 construct: spans amino acids 101–399; GST (N); purchased Reaction Biology Corporation (Malvern, PA, USA), in-house enzyme of the contract laboratory; host or cells: E. coli
Briefly: Fluorescence-based Sirt3 subtype selectivity assay (Reaction Biology). The series is classed as biochemical. The note with it: 50 µM inhibitor, duplicate, relative to no-inhibitor control. How it is done:
as §1, §2

The next series deals with T4, Sirt1.
T4 construct: includes amino acids 1–747 (C-terminal); His-tag (N); purchased Reaction Biology Corporation (Malvern, PA, USA), in-house enzyme of the contract laboratory; host or cells: E. coli
Briefly: Fluorescence-based Sirt1 subtype selectivity assay (Reaction Biology). The format is biochemical. The note with it: 50 µM inhibitor, duplicate, relative to no-inhibitor control. As for the experimental part:
as §1, §2

Some results are limits rather than exact numbers.

Take `Cc1cc(C)nc(SCC(=O)Nc2ncc(Cc3cccc4ccccc34)s2)n1` [SirReal2]: the “toxicity in HL-60 cell line” value in the series on HL-60 cell line is on record as “not toxic”.
Consider `Cc1cc(C)nc(SCC(=O)Nc2ncc(COc3ccc(NC(=O)c4cnn(C)c4)c(Cl)c3)s2)n1` [RW-99, N-(2-Chloro-4-((2-(2-((4,6-dimethylpyrimidin-2-yl)thio)acetamido)thiazol-5-yl)methoxy)phenyl)-1-methyl-1H-pyrazole-4-carboxamide], for which the “Residual Enzyme Activity [%] ± SD Sirt5” value in the series with Sirt5 turned out to be 55.1 ± 2.0%. Moreover, the IC50 on Sirt2 worked out at 0.025 ± 0.0026 µM. Besides, the IC50 at 24 h in series [1] was greater than 50 µM. Besides, the “Residual Enzyme Activity [%] ± SD Sirt3” value in the series with Sirt3 amounted to 56.1 ± 0.1%. Moreover, the “Residual Enzyme Activity [%] ± SD Sirt1” value in the series with Sirt1 is 53.9 ± 0.2%.
